Experimental data as given in patent US20090035298A1 (priority 2007, published 2009).
Several values for one entry are separate records, joined by “and”; a condition that tells them apart may be missing. Equal entries are not always repeated. Where two headings read alike, the source gives them in different places. Where no end group is shown, it is not given here.

Tests used:
[1] = test system: hippocampal ISF Aβ levels; format: in vivo, Tg2576 mice; details: for ISF Aβ levels, % of baseline by 12 hours / Effect on ISF Aβ levels versus vehicle treated mice: 3-4 month old Tg2576 mice; for ISF Aβ levels, % of baseline by 12 hours: n=5; for Effect on ISF Aβ levels versus vehicle treated mice: 50 mg/kg intraperitoneal, n=8 per group
[2] = test system: neuronal activity in the hippocampus; parameters: species or system Tg2576 mice; details: mouse, in vivo

NC1=N[C@H](O)[C@H]2[C@H]3O[C@]4(O)O[C@@H]([C@@H](O)[C@@]2(N1)[C@@H]4O)[C@]3(O)CO [TTX, Tetrodotoxin]
Change in ISF Aβ levels on 3 hours restraint stress given 8 hours after TTX treatment, compared to TTX-alone controls ([1]; mouse, in vivo): no significant change | Decrease of ISF Aβ levels over 16 hours compared to baseline ([1]; mouse, in vivo): ~60% | ISF Aβ levels for an additional 12 hours in the presence of TTX ([1]; mouse, in vivo): remained low | ISF Aβ levels, % of baseline by 17 hours from drug treatment ([1]; mouse, in vivo): 58.5% | Effect on neuronal activity in the hippocampus [2]: almost completely blocked

CRF (SEEPPISLDLTFHLLREVLEMARAEQLAQQAHSNRKLMEII; ends and bridges not checked; UniProt P06850 154-194, looked up)
ISF Aβ levels, % of baseline by 12 hours ([1]; 100 nM by reverse microdialysis in hippocampus): 138.3±7.027% and 138.3% | Time of increase of ISF Aβ levels after drug infusion ([1]; 100 nM in the microdialysis fluid): 3 h | ISF Aβ levels, % of baseline by 12 hours ([1]; 200 nM by reverse microdialysis in hippocampus): 171.9±17.83% and 171.9% | Time of increase of ISF Aβ levels after drug infusion ([1]; 200 nM in the microdialysis fluid): immediately | Dose dependence of increase in ISF Aβ levels ([1]; 100 and 200 nM by reverse microdialysis): dose-dependent manner

C[C@]12C[C@H](O)[C@H]3[C@@H](CCC4=CC(=O)CC[C@@]43C)[C@@H]1CC[C@@H]2C(=O)CO [CORT, Corticosterone]
Effect on ISF Aβ levels versus vehicle treated mice [1]: no difference | Effect on ISF Aβ levels versus vehicle treated mice ([1]; listed as Corticosterone): did not alter
